From patent US20220409727A1, “Metal Complexes Bearing Bisstyryl-Bipyridine Ligand and Their Use as Photosensitizer Agent in One and Two-Photon Photodynamic Therapy” (Paris Sciences et Lettres, priority 2019, published 2022)

Tests used:
[1] = system: human glioblastoma astrocytoma (U373) cells
Experimental: (§1) The human glioblastoma astrocytoma (U373) cell line was cultured in MEM medium supplemented with 10% FBS, 1% NEAA (non-essential amino-acids) and 1% penicillin/streptomycin. […] The human retinal epithelial cells (RPE-1, non-cancerous cells immortalized with hTERT) were cultured in DMEM-F12 medium supplemented with 10% FBS and 1% penicillin/streptomycin. All cell lines were obtained from the American Type Culture Collection (ATCC) and cultured at 37° C. and 5% CO2. Before an experiment, the cells were passaged three times.
(§2) The cytotoxicity of the compounds was assessed by measuring cell viability using a fluorometric resazurin assay. The cultivated cells were seeded in triplicates in 96 well plates with a density of 4000 cells per well in 100 μL of media. After 24 h, the medium was removed and the cells were treated with increasing concentrations of the compound diluted in cell media achieving a total volume of 200 μL. The cells were incubated with the compound for 4 h. After this time, the media was removed and replaced with 200 μL of fresh medium. For the phototoxicity studies, the cells were exposed to light with an Atlas Photonics LUMOS BIO irradiator. Each well was constantly illuminated with either a 480 nm or 540 nm irradiation. During this time, the temperature was maintained constantly at 37° C. The cells were grown in the incubator for additional 44 h. For the determination of the dark cytotoxicity, the cells were not irradiated and after the medium exchange directly incubated for 44 h. After this time, the medium was replaced with fresh medium containing resazurin with a final concentration of 0.2 mg/mL. After 4 h incubation, the amount of the fluorescent product resorufin was determined upon excitation at 540 nm and measurement its emission at 590 nm using a SpectraMax M2 Microplate Reader (Molecular Devices).
(§3) The obtained data was analyzed with the GraphPad Prism software.

[2] = Singlet oxygen measurement, direct evaluation (1O2 luminescence at 1270 nm); format: physicochemical
Experimental: The samples were prepared in an air saturated CH3CN or D2O solution with an absorbance of 0.2 at 450 nm. This solution was irradiated in fluorescence quartz cuvettes (width 1 cm) using a mounted M450LP1 LED (Thorlabs) whose irradiation, centered at 450 nm, has been focused with aspheric condenser lenses. The intensity of the irradiation has been varied using a T-Cube LED Driver (Thorlabs) and measured with an optical power and energy meter. The emission signal was focused and collected at right angle to the excitation pathway and directed to a Princeton Instruments Acton SP-2300i monochromator. A longpass glass filter was placed in front of the monochromator entrance slit to cut off light at wavelengths shorter than 850 nm. As a detector an EO-817L IR-sensitive liquid nitrogen cooled germanium diode detector (North Coast Scientific Corp.) has been used. The singlet oxygen luminesce at 1270 nm was measured by recording spectra from 1100 to 1400 nm. For the data analysis, the singlet oxygen luminescence peaks at different irradiation intensities were integrated. The resulting areas were plotted against the percentage of the irradiation intensity and the slope of the linear regression calculated. The absorbance of the sample was corrected with an absorbance correction factor. As reference for the measurement Rose Bengal (Φ=76%) (Kochevar, I. E. and Redmond, R. W., 2000) was used and the singlet oxygen quantum yields were calculated using the following formula:
Φsample=Φreference*(Ssample/Sreference)*(Ireference/Isample)
Φ=singlet oxygen quantum yield, S=slope of the linear regression of the plot of the areas of the singlet oxygen luminescence peaks against the irradiation intensity, I=absorbance correction factor, […] of the irradiation source, A=absorbance of the sample at irradiation wavelength.

[3] = system: mouse colon carcinoma (CT-26) cells
Experimental: as §1, §2, §3

[4] = Luminescence lifetime measurements; format: physicochemical; details: excitation at 355 nm; for τ/ns air (Lifetime): air saturated CH3CN; for τ/ns degassed (Lifetime): degassed CH3CN
Experimental: For the determination of the lifetimes, the samples were prepared in an air saturated and in a degassed CH3CN solution with an absorbance of 0.2 at 355 nm. This solution was irradiated in fluorescence quartz cuvettes (width 1 cm) using a NT342B Nd-YAG pumped optical parametric oscillator (Ekspla) at 355 nm. The emission signal was focused and collected at right angle to the excitation pathway and directed to a Princeton Instruments Acton SP-2300i monochromator. As a detector a R928 photomultiplier tube (Hamamatsu) has been used.

[5] = system: non-cancerous retinal pigment epithelium (RPE-1) cells; assay: (Photo-)cytotoxicity on 2D cell monolayers, resazurin assay, RPE-1; details: for PI (480 nm): RPE-1, dark vs 480 nm (10 min, 3.1 J/cm^2); for PI (540 nm): RPE-1, dark vs 540 nm (40 min, 9.5 J/cm^2);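 on all read-outs here: cells exposed to compound 4 h, medium exchanged, then irradiated or kept dark, 44 h further growth, viability by resorufin fluorescence (ex 540 nm, em 590 nm)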
Experimental: as §1, §2, §3

HeLa MCTS = assay: 3D multicellular tumor spheroids (MCTS) growth inhibition assay; format: cell-based, human; details: 20 μM, 1P (500 nm, 10 J/cm^2) or 2P (800 nm, 10 J/cm^2) irradiation on day 3
Experimental: autoclave. The hot emulsion was transferred into wells (50 μL per well) of a 96 cell culture well plate. The plates were exposed for 3 h to UV irradiation to ensure the sterility and allow the agarose solution to cool down. After this time, the agarose was overlayed with a HeLa cell suspension at a density of 3000 cells per well in 150 μL of media. The MCTS were cultivated and maintained at 37° C. in a cell culture incubator at 37° C. with 5% CO2 atmosphere. The culture media was replaced every two days. Within two-three days MCTs were formed from the cell suspension. The formation as well as integrity, diameter and volume of the MCTs was monitored by an Axio Observer Z1 (Carl Zeiss) phase contrast microscope. The volume was calculated using the following formula: V=4/3πr^3. The luminescence images along the z-axis were captured by a one-(λex=458 nm, λem=600-750 nm) or two-photon (λex=800 nm, λem=600-750 nm) excitation in the z-stack mode with a an LSM 880 (Carl Zeiss) laser scanning confocal microscope equipped with Argon and a Coherent Chameleon 2-Photon laser and a GaAsP detector.
MCTS were treated with the corresponding compounds (20 μM 1-7, 20 μM tetraphenylporphyrin H2TPP, 10 μM cisplatin, 30 μM cisplatin, 2% DMSO, v %) by replacing 50% of the media with drug supplemented media in the dark for three days. After this time, the MCTS were exposed to a two-photon irradiation (800 nm, 10 J/cm^2) with a section interval of 5 μm using a LSM 880 (Carl Zeiss) laser scanning confocal microscope equipped with a Coherent Chameleon 2-Photon laser. The cell culture media was replaced every two days. The integrity and diameter of the MCTs was monitored with an Axio Observer Z1 (Carl Zeiss) phase contrast microscope every 24 h.

[6] = system: SW620/AD300 (doxorubicin-selected P-gp-overexpressing human colon cancer cell) tumour-bearing nude mice; assay: In vivo PDT in tumour-bearing nude mice
Experimental: 6 weeks age nu/nu female mice were purchased from Charles River. Compound 7 was dissolved into physiological saline at first. Tumor xenograft: 6×10^6 SW620/AD300 cells were subcutaneously (s.c.) injected in the nude mice, the cells were suspension in 150 μL Matrigel (Corning) and saline (1:1, v/v). After a week, the tumor volumes of the mice reached approximately 80 mm^3.
30 SW620/AD300 nude tumour-bearing nude mice were randomly separated into 6 groups and five mice for each group.
Group 1: injected 7 (2 mg/Kg 50 μL) intravenously and irradiate under 800 nm laser (50 mW, 1 kHz, pulse width 35 fs, 5 s/mm) 1 h after injection;
Group 2: injected 7 (2 mg/Kg 50 μL) intravenously and irradiate under 500 nm light (10 mW/cm^2, 60 min);
Group 3: injected by physiological saline (50 μL) and treated with 800 nm laser (50 mW, 1 kHz, pulse width 35 fs, 5 s/mm) 1 h after injection;
Group 4: injected by physiological saline (50 μL) and treated with 500 nm light (10 mW/cm^2, 60 min);
Group 5: intravenous injected 7 (2 mg/Kg 50 μL);
Group 6: injected 50 μL physiological saline.
The mice were anesthetized by the injection of 4% chloral hydrate aqueous solution (0.2 mL/20 g) before treatment. The tumour volume and body weight were measured and record for each two days. Tumor volume was calculated by the following formula
After the treatment, the mice were euthanized. The tumour was collected and fixated by 4% paraformaldehyde, and then obtained as paraffin-embedded samples and stained with hematoxylin and eosin (H&E). A Carl Zeiss Axio Imager Z2 microscope was used to observe the tissue structure and cell state of the sections.

Molecule	IC50 [1]	Singlet oxygen quantum yield, direct 450 nm CH3CN [2]	IC50 [3]	τ/ns air (Lifetime) [4]	τ/ns degassed (Lifetime) [4]	PI (480 nm) [5]	PI (540 nm) [5]	volume of the MCTS after light irradiation (HeLa MCTS)	behaviour of treated animals ([6]; 2 mg/Kg intravenously)	tumour volume, PDT treated ([6]; 2 mg/Kg intravenously plus 2P irradiation at 800 nm or 1P irradiation at 500 nm, 15 days)	tumour volume, compound only ([6]; 2 mg/Kg intravenously, no irradiation)
CN(C)c1ccc(/C=C/c2ccnc(-c3cc(/C=C/c4ccc(N(C)C)cc4)ccn3)c2)cc1.CN(C)c1ccc(/C=C/c2ccnc(-c3cc(/C=C/c4ccc(N(C)C)cc4)ccn3)c2)cc1.F[P-](F)(F)(F)(F)F.F[P-](F)(F)(F)(F)F.[Ru+2].c1ccc(-c2ccccn2)nc1 [Compound 4, [Ru(bipy)((E,E′)-4,4′-Bis[p-(N,N-dimethylamino)styryl]-2,2′-bipyridine)2][PF6]2]	19 ± 2.8 µM	34%	7.3 ± 1.4 µM	69 ns	417 ns	>9.2	>6.8				
COc1ccc(/C=C/c2ccnc(-c3cc(/C=C/c4ccc(OC)cc4)ccn3)c2)cc1.COc1ccc(/C=C/c2ccnc(-c3cc(/C=C/c4ccc(OC)cc4)ccn3)c2)cc1.F[P-](F)(F)(F)(F)F.F[P-](F)(F)(F)(F)F.[Ru+2].c1ccc(-c2ccccn2)nc1 [Compound 5, [Ru(bipy)((E,E′)-4,4′-Bis[p-methoxystyryl]-2,2′-bipyridine)2][PF6]2]	17.8 ± 3.2 µM	54%	5.1 ± 1.1 µM	36 ns	231 ns	>9.8	>7.9				
CN(C)c1ccc(/C=C/c2ccnc(-c3cc(/C=C/c4ccc(N(C)C)cc4)ccn3)c2)cc1.F[P-](F)(F)(F)(F)F.F[P-](F)(F)(F)(F)F.[Ru+2].c1ccc(-c2ccccn2)nc1.c1ccc(-c2ccccn2)nc1 [Compound 6, [Ru(bipy)2((E,E′)-4,4′-Bis[p-(N,N-dimethylamino)styryl]-2,2′-bipyridine)][PF6]2]	10.7 ± 1.9 µM	46%	2.4 ± 0.5 µM	54 ns	405 ns	>13.7	>12.3				
CN(C)c1ccc(/C=C/c2ccnc(-c3cc(/C=C/c4ccc(N(C)C)cc4)ccn3)c2)cc1.F[P-](F)(F)(F)(F)F.F[P-](F)(F)(F)(F)F.[Ru+2].c1cnc2c(c1)ccc1cccnc12.c1cnc2c(c1)ccc1cccnc12 [Compound 8, [Ru(phen)2((E,E′)-4,4′-Bis[p-(N,N-dimethylamino)styryl]-2,2′-bipyridine)][PF6]2]	13.3 ± 2.4 µM	59%	8.2 ± 1.1 µM	136 ns	334 ns	>10.9	>6.4				
COc1ccc(/C=C/c2ccnc(-c3cc(/C=C/c4ccc(OC)cc4)ccn3)c2)cc1.F[P-](F)(F)(F)(F)F.F[P-](F)(F)(F)(F)F.[Ru+2].c1cnc2c(c1)ccc1cccnc12.c1cnc2c(c1)ccc1cccnc12 [Compound 9, [Ru(phen)2((E,E′)-4,4′-Bis[p-methoxystyryl]-2,2′-bipyridine)][PF6]2]	2.1 ± 0.7 µM	75%	1.1 ± 0.5 µM	193 ns	669 ns	>41.7	>47.6				
CN(C)c1ccc(/C=C/c2ccnc(-c3cc(/C=C/c4ccc(N(C)C)cc4)ccn3)c2)cc1.F[P-](F)(F)(F)(F)F.F[P-](F)(F)(F)(F)F.[Ru+2].c1ccc(-c2ccnc3c2ccc2c(-c4ccccc4)ccnc23)cc1.c1ccc(-c2ccnc3c2ccc2c(-c4ccccc4)ccnc23)cc1 [Compound 10, [Ru(4,7-Diphenyl-1,10-phenanthroline)2((E,E′)-4,4′-Bis[p-(N,N-dimethylamino)styryl]-2,2′-bipyridine)][PF6]2]	2.1 ± 0.4 µM	51%	1.3 ± 0.3 µM	72 ns	339 ns	8.7	7.4				
COc1ccc(C=Cc2ccnc(-c3cc(C=Cc4ccc(OC)cc4)ccn3)c2)cc1.F[P-](F)(F)(F)(F)F.F[P-](F)(F)(F)(F)F.[Ru+2].c1ccc(-c2ccnc3c2ccc2c(-c4ccccc4)ccnc23)cc1.c1ccc(-c2ccnc3c2ccc2c(-c4ccccc4)ccnc23)cc1 [Compound 11, [Ru(4,7-Diphenyl-1,10-phenanthroline)2((E,E′)-4,4′-Bis[p-methoxystyryl]-2,2′-bipyridine)][PF6]2]	0.7 ± 0.3 µM	66%	0.5 ± 0.2 µM	108 ns	679 ns	23.1	29.7				
[Ru(bipy)2((E,E′)-4,4′-Bis[p-(N,N-methoxy)styryl]-2,2′-bipyridine)][PF6]2 [Compound 7]	13.5 ± 1.6 µM	75%	0.7 ± 0.4 µM		542 ns	>32.3	>11.9	strongest phototoxic effect	behave normally, without signs of pain, stress or discomfort	drastically shrank until they were nearly eradicated	did not show any significant effect
